Reference: patent US20070069122A1, “In situ polypeptide identification” (priority 2005, published 2007)

What was measured:
kidney proximal tubules = assay: Histology of kidney after gentamicin treatment (model system for nephrotoxicity); format: in vivo, rat; settings: rats, 100 mg/kg/day sc for 7 days
Description: Permission for animal studies was obtained from the local regulatory agencies, and all study protocols were in compliance with animal welfare guidelines. Male HanBrl: Wistar rats of approximately 12 weeks of age (300g±20%) were obtained from BRL, Füllinsdorf, Switzerland. The animals were housed individually in Macrolone cages with wood shavings as bedding at […] and 50% relative humidity in a 12-hr light/dark rhythm with free access to water and Kliba 3433 rodent pellets (Provimi Kliba AG, Kaiseraugst, Switzerland).
(§1) Animals were treated for 7 consecutive days with 100 mg/kg/day Gentamicin (dissolved in saline) or vehicle by subcutaneous (sc) injections and sacrificed 24 hours after the last application by CO2 inhalation. Immediately preceding sacrifice, terminal blood samples for clinical chemistry investigations were collected from the retroorbital sinus under isofluoran anesthesia.
Representative kidney samples were fixed in 10% neutral buffered formalin. All samples were processed using routine procedures and embedded in Paraplast. Tissue sections approximately 2-3 microns were cut and stained with hematoxylin-eosin (HE) or periodic acid-Schiff (PAS).
Marked degeneration/regeneration of proximal tubules (grade 4) was clearly observed in rats treated with 100 mg/kg/day gentamicin for 7 days. This finding was correlated to the analysis of rat kidney thin sections by MALDI IMS. […]

rat kidney cortex = assay: MALDI IMS profiling of rat kidney cortex thin sections, gentamicin-treated versus control; format: in vivo
Description: as §1
Marked degeneration/regeneration of proximal tubules (grade 4) was clearly observed in rats treated with 100 mg/kg/day gentamicin for 7 days. This finding was correlated to the analysis of rat kidney thin sections by MALDI IMS. 9 control and 9 gentamicin-treated rat kidneys thin sections (3 animals, 3 sections from each animal; the thin section was spotted with matrix as shown in FIG. 1) were subjected to mass spectrometric analysis as described below.
Kidneys were dissected from rats, snap frozen on dry ice and stored at −80° C. prior to further processing. 12 μm sections were obtained on a cryostat (LEICA CM 3000, Leica Microsystems) at −18° C. and deposited on ITO-coated conductive glass slides (Indium Tin Oxide 50×75×0.9 mm, Delta Technologies). Sample preparation were performed according to published procedure (Schwartz, S. A., Reyzer, M. L., and Caprioli, R. M. (2003) Journal of Mass Spectrometry 38, 699-708). Tissue sections were then fixed by immersion in ethanol bathes and let to dry 30 minutes under vacuum. During all the process the sections were stored as much as possible under vacuum. Deposition of MALDI matrix was done manually with a pipette. 200 nL of freshly prepared sinapinic acid solution (3,5-dimethoxy-4-hydroxycinnaminic acid, Fluka, 20 mg/ml in water/acetonitrile 1:1, 0.1% trifluoroacetic acid) was deposited onto the tissue. After crystallization, an additional 200 nL was layered onto the spots and the matrix was let to dry at room temperature. The sample was then kept under vacuum if not analyzed immediately by mass spectrometry.
MALDI MS spectra were acquired using an UltraFlex MALDI ToF/ToF instrument (Bruker Daltonics) with a standard 337-nm N2 laser operating at 50Hz and a laser spot size of 50 μm. The instrument was operated in positive linear mode (2 kDa-30 kDa) at constant laser power. A total of 8 times 100 laser shots were averaged for each manually deposited matrix droplets. Spectra were externally calibrated using a protein calibration standard solution (Insulin, Ubiquitin I, Cytochrom C, Myoglobin; Bruker Daltonics). Internal calibration was performed post-acquisition using redundant known peaks from the spectra (Hemoglobin α-chain, Thymosin β-4, Cytochrome c oxidase polypeptide VIIa L, Ubiquitin, Cytochrome c oxidase polypeptide VIb).
The spectra were processed using a combination of tools available commercially and developed in-house at Vanderbilt University. Baseline subtraction, normalization, peak detection, and spectral alignment were performed using the ProTS-Data software (Efeckta Technologies, Inc.) All spectra were baseline corrected to remove contributions of chemical noise to the signal. This step was performed by locally estimating the baseline and subtracting the […] from the raw data. For the present data set the software was set to consider a window width 10 times that of the peak width to account for the differences in resolution for different m/z regions. The baseline corrected spectra were normalized in intensity by scaling the spectra to a common total ion current. Peak detection was performed using ProTS-Data and a list of 13 common peaks was selected to be internal alignment points using a quadratic calibration function. The criterion used to select common peaks were that the peak must occur in greater than 80% of the spectra to be aligned, must not have interfering or overlapping peaks, and the peaks must have a standard deviation of the observed centroid value less that 7 mass units. […]

[1] = tested on: transthyretin (prealbumin); assay: Western blot of kidney cortex cytosolic fraction and HPLC fraction D10; format: in vivo, rat; settings: kidney cortex cytosolic fraction
Description: Tissue extracts from control and treated rat kidneys were obtained by homogenization of a piece of cortex in a 10 mM Tris-HCl buffer pH 7.6 containing 250 mM sucrose and protease inhibitors (Roche Complete). The tissue extract was subjected to three successive centrifugation steps at 4° C. (10 min at 680 g; 10 min at 10 000 g; 1 h at 100 000 g) whereas the pellets were discarded and the supernatant of the last centrifugation step was kept as the kidney cytosolic fraction.
1 μl of the kidney cytosolic fraction and of the relevant HPLC fraction were subjected to electrophoresis using a 4-20% Tris-Glycine SDS-PAGE gel (Invitrogen) and the proteins were subsequently transferred to a PVDF membrane. Blots were blocked in 5% milk in PBS containing 0.1% Tween 20 for 1 h and incubated overnight at room temperature with an […] (Abcam) in PBS containing 5% milk and 0.1% Tween 20. After washing with PBS containing 0.1% Tween 20, blots were incubated for 1 h with horseradish peroxidase conjugated with an anti-sheep IgG antibody (Silenus Laboratories). Antibody binding was detected using ECL western blotting reagents (Amersham).

transthyretin = assay: Immunohistochemical examination of kidney; format: in vivo; settings: treated versus control rat, whole kidney sections
Description: FIG. 8: Immunohistochemical examination of kidney from control and gentamicin-treated rat. […] High magnification photomicrographs from the cortex (C, E) vs. the medulla (D, F) reveal specific localization of TTR immunoreactivity in the cortex tubules of the treated kidney. Transthyretin immunoreactivity is visualized by the grey precipitate of diaminobenzidine-Ni counterstained with cresyl violet.

[2] = kidney cortex, 100 mg/kg/day sc 7 days

Gentamicin
degeneration/regeneration of proximal tubules, grade (kidney proximal tubules): 4 | presence of species 12959 (transthyretin S28-Q146) in mass spectrum (rat kidney cortex; in situ and in HPLC fraction D10): only present in the mass spectrum of the gentamicin-treated sample | doubly-charged species at m/z 6480, behaviour in treated versus control cortex (rat kidney cortex; kidney cortex): showed a similar behavior | Average S/N (gent), peak m/z 3343.714 (rat kidney cortex; [2]): 2 | Average S/N (gent), peak m/z 4010.498 (rat kidney cortex; [2]): 1 | Average S/N (gent), peak m/z 4107.083 (rat kidney cortex; [2]): 5 | Average S/N (gent), peak m/z 4141.907 (rat kidney cortex; [2]): 1 | Average S/N (gent), peak m/z 4181.504 (rat kidney cortex; [2]): 0 | Average S/N (gent), peak m/z 4497.792 (rat kidney cortex; [2]): 0 | Average S/N (gent), peak m/z 5096.886 (rat kidney cortex; [2]): 5 | Average S/N (gent), peak m/z 5222.249 (rat kidney cortex; [2]): 0 | Average S/N (gent), peak m/z 5301.852 (rat kidney cortex; [2]): 0 | Average S/N (gent), peak m/z 5355.669 (rat kidney cortex; [2]): 1 | Average S/N (gent), peak m/z 5478.957 (rat kidney cortex; [2]): 2 | Average S/N (gent), peak m/z 6080.035 (rat kidney cortex; [2]): 1 | Average S/N (gent), peak m/z 6498.996 (rat kidney cortex; [2]): 0 | Average S/N (gent), peak m/z 6912.956 (rat kidney cortex; [2]): 6 | Average S/N (gent), peak m/z 6938.997 (rat kidney cortex; [2]): 1 | Average S/N (gent), peak m/z 7083.364 (rat kidney cortex; [2]): 6 | Average S/N (gent), peak m/z 12959.23 (rat kidney cortex; [2]): 5 | Average S/N (gent), peak m/z 13004.71 (rat kidney cortex; [2]): 0 | Average S/N (gent), peak m/z 17100.68 (rat kidney cortex; [2]): 0 | Average S/N (gent), peak m/z 17176.83 (rat kidney cortex; [2]): 0 | transthyretin abundance in kidney by Western blot, gentamicin-treated versus control rats [1]: significantly more abundant | transthyretin immunoreactivity in kidney cortex (transthyretin): high levels of transthyretin immunoreactivity
